Here are results for 3 compounds from patent US20200171132A1, “METHODS OF INHIBITING FUNGAL CERAMIDE SYNTHASE FOR TREATMENT OF CRYPTOCOCCUS NEOFORMANS INFECTION” (The Research Foundation for the State University of New York, priority 2017, published 2020).

One assay deals with Cer1. The settings on record: cited from earlier work.
The next assay deals with T1, human Cer1 (Homo sapiens, UniProt P27544).
T1 sequence (P27544 1-350): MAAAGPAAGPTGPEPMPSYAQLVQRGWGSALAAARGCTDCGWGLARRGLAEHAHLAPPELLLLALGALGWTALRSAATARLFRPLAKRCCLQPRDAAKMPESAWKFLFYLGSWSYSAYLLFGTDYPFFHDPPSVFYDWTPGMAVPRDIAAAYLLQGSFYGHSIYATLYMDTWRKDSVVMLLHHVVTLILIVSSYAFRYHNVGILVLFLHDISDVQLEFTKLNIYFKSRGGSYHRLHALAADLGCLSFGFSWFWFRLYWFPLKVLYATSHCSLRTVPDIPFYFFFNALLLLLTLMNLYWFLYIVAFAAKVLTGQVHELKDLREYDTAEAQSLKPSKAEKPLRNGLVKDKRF
To be noted: cited from earlier work.

The test system of the next assay is Pma1. The assay can be described thus: Glucose dependent medium acidification (plasma membrane H+-ATPase activity). It counts as cell-based, Cryptococcus neoformans. The method, then:
Glucose-dependent medium acidification was monitored by a modification of a procedure described previously (Perlin, Brown et al. 1988, Soteropoulos, Vaz et al. 2000). Cultures of Cn strain WT, Δcer1, Δcer1+CER1, Δgcs1 were grown to mid-log Phase in YPD. The next day, these cells were transferred to DMEM at pH 4.0 and allowed to grow under shaking conditions for 24 hours. These cells were then harvested and washed using 100 mM KCl, pH 5.0. These pellets were then resuspended in 10 ml KCl, pH 5.0 and incubated under shaking condition at 30° C. These samples were then stored at 4° C. overnight prior to use. For the assay, cells were concentrated to a final A590 of approximately 2.0. 20 μl cells along with 155 μl of bromophenolblue (50 μg/ml) in 100 mM KCl, pH 5.0. 20 μl 20% (w/v) glucose was added to initiate the reaction. Medium acidification was monitored at 590 nm over a period of 5 hours (data point every 3 mins) in a microplate reader (SpectraMax M5).

Another assay concerns GAL7::IPC1. Description: In vitro growth at 37° C., 5% CO2, pH 4.0. It counts as cell-based, Cryptococcus neoformans. The settings on record: supplementation.

For the compound `CCCCCC[C@@H](C)C1=C(O)C(=O)[C@@H]2[C@H](O)[C@H](C)C[C@H](O)[C@H]2[C@]1(C)C(=O)/C=C\O` [Australifungin], the “known Cer1 inhibitor” value in the assay with Cer1 is given as “known Cer1 inhibitor”. Moreover, the “targets human Cer1” value at human Cer1 is “targets human Cer1”.

Consider `CCCCCCCCCCCCC/C=C/[C@@H](O)[C@H](CO)NC(=O)CCCCCCCCCCCCCCCCC` [C18 ceramide], for which the Pma1 activity entry with Pma1 (AbA treated Δgcs1 cells, supplementation) is reported as “increases”. In the assay on Pma1 (Δcer1 cells upon supplementation), the Pma1 efficiency result was “increase”. The “growth defect of GAL7::IPC1 in acidic conditions” value in the assay on GAL7::IPC1 is given as “compensated”.

Aureobaisdin A [AbA]: the Pma1 activity result with Pma1 (Δgcs1 strain upon treatment) is “reduced”.
